Source: patent publication US11965039B2, “Compstatin analogues and their medical uses” (priority 2018, dated 2024)
Starred links: 1 amine or outer side, 2 acyl side, 3 side chain; linkers in the order of their positions; H or OH if unused. Positions of bridges follow the written chain, without caps; N, C: chain ends. Non-standard residues stand in square brackets, D forms with d. Residues, ends and D or L forms follow the SMILES beside them. Groups on a side chain read outwards from the residue. *: point of attachment. C20 diacid = O=C(O)CCCCCCCCCCCCCCCCCCC(=O)*; Trp(1-Me) = Cn1cc(C[C@H](N)C(=O)O)c2ccccc21; C18 diacid = O=C(O)CCCCCCCCCCCCCCCCC(=O)*; C16 diacid = O=C(O)CCCCCCCCCCCCCCC(=O)*; γGlu = O=C(O)[C@H](CCC(=O)[*:2])N[*:1]; AEEA = NCCOCCOCC(=O)O; Sar = CNCC(=O)O

System: classical complement pathway
Experiment: In vitro haemolysis assay (inhibition of classical complement pathway)
Assay type: cell-based, human
Conditions: human serum, sensitized sheep red blood cells; Table 3, given as upper bounds; read-out: IC50, inhibition of hemolysis
Procedure, shortened: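 Compound dilutions preincubated 15 min at room temperature with diluted human serum (titrated per batch for 70-90% maximal haemolysis), then antibody-sensitized sheep RBC (10^7/well) added for 30 min at 37 °C in Tris/casein buffer, pH 7.4. Stopped with EDTA; haemolysis read at 405 nm; IC50 by 4PL fit.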

| Structure (SMILES) | IC50 |
| --- | --- |
| CC[C@H](C)[C@@H]1NC(=O)[C@@H](NC(=O)[C@H](Cc2ccccc2)NC(=O)[C@H](CCC(=O)O)NC(=O)[C@H](CO)NC(C)=O)CSSC[C@@H](C(=O)N(C)CC(=O)N[C@@H](CCC(=O)O)C(=O)NCC(=O)N[C@@H](CCC(=O)O)C(=O)NCCOCCOCC(=O)NCCOCCOCC(=O)N[C@@H](CCCCNC(=O)CC[C@H](NC(=O)CNC(=O)CC[C@H](NC(=O)CCCCCCCCCCCCCCCCC(=O)O)C(=O)O)C(=O)O)C(N)=O)NC(=O)[C@H](CCCNC(=N)N)NC(=O)[C@H](Cc2c[nH]cn2)NC(=O)[C@H](CCC(=O)O)NC(=O)CNC(=O)[C@H](Cc2c[nH]c3ccccc23)NC(=O)[C@H](CC(=O)O)NC(=O)[C@H](CCC(N)=O)NC(=O)[C@H](Cc2cn(C)c3ccccc23)NC1=O [Compound 123] (Ac-SEFCI[Trp(1-Me)]QDWGEHRC[Sar]EGE[AEEA][AEEA]K([γGlu-Gly-γGlu-C18 diacid])-NH2; disulfide 4-14) | < 100 nM |
| CC[C@H](C)[C@@H]1NC(=O)[C@@H](NC(=O)[C@H](Cc2ccccc2)NC(=O)[C@H](CCC(=O)O)NC(=O)[C@H](CO)NC(C)=O)CSSC[C@@H](C(=O)N(C)CC(=O)N[C@@H](CCC(=O)O)C(=O)NCC(=O)N[C@@H](CCC(=O)O)C(=O)NCCOCCOCC(=O)NCCOCCOCC(=O)N[C@@H](CCCCNC(=O)CC[C@H](NC(=O)CNC(=O)CC[C@H](NC(=O)CCCCCCCCCCCCCCCCC(=O)O)C(=O)O)C(=O)O)C(N)=O)NC(=O)[C@H](CCCNC(=N)N)NC(=O)[C@H](Cc2c[nH]cn2)NC(=O)[C@H](CCC(=O)O)NC(=O)CNC(=O)[C@H](Cc2c[nH]c3ccccc23)NC(=O)[C@H](CCC(=O)O)NC(=O)[C@H](CCC(N)=O)NC(=O)[C@H](Cc2cn(C)c3ccccc23)NC1=O [Compound 124] (Ac-SEFCI[Trp(1-Me)]QEWGEHRC[Sar]EGE[AEEA][AEEA]K([γGlu-Gly-γGlu-C18 diacid])-NH2; disulfide 4-14) | < 100 nM |
| CC[C@H](C)[C@@H]1NC(=O)[C@@H](NC(=O)[C@H](Cc2ccc(O)cc2)NC(=O)[C@H](CCC(=O)O)NC(=O)[C@H](CO)NC(C)=O)CSSC[C@@H](C(=O)N(C)CC(=O)N[C@@H](CCC(=O)O)C(=O)NCC(=O)N[C@@H](CCC(=O)O)C(=O)NCCOCCOCC(=O)NCCOCCOCC(=O)N[C@@H](CCCCNC(=O)CC[C@H](NC(=O)CNC(=O)CC[C@H](NC(=O)CCCCCCCCCCCCCCCCC(=O)O)C(=O)O)C(=O)O)C(N)=O)NC(=O)[C@H](CCCNC(=N)N)NC(=O)[C@H](Cc2c[nH]cn2)NC(=O)[C@H](CCC(=O)O)NC(=O)CNC(=O)[C@H](Cc2c[nH]c3ccccc23)NC(=O)[C@H](CCC(=O)O)NC(=O)[C@H](CCC(N)=O)NC(=O)[C@H](Cc2cn(C)c3ccccc23)NC1=O [Compound 125] (Ac-SEYCI[Trp(1-Me)]QEWGEHRC[Sar]EGE[AEEA][AEEA]K([γGlu-Gly-γGlu-C18 diacid])-NH2; disulfide 4-14) | < 500 nM |
| CC[C@H](C)[C@@H]1NC(=O)[C@@H](NC(=O)[C@H](Cc2ccccc2)NC(=O)[C@H](CCC(=O)O)NC(=O)[C@H](CO)NC(C)=O)CSSC[C@@H](C(=O)N[C@H](C(=O)N[C@@H](CCC(=O)O)C(=O)NCC(=O)N[C@@H](CCC(=O)O)C(=O)NCCOCCOCC(=O)NCCOCCOCC(=O)N[C@@H](CCCCNC(=O)CC[C@H](NC(=O)CNC(=O)CC[C@H](NC(=O)CCCCCCCCCCCCCCCCC(=O)O)C(=O)O)C(=O)O)C(N)=O)[C@@H](C)O)NC(=O)[C@H](CCCNC(=N)N)NC(=O)[C@H](Cc2c[nH]cn2)NC(=O)[C@H](CCC(=O)O)NC(=O)CNC(=O)[C@H](Cc2c[nH]c3ccccc23)NC(=O)[C@H](CC(=O)O)NC(=O)[C@H](CCC(N)=O)NC(=O)[C@H](Cc2cn(C)c3ccccc23)NC1=O [Compound 126] (Ac-SEFCI[Trp(1-Me)]QDWGEHRCTEGE[AEEA][AEEA]K([γGlu-Gly-γGlu-C18 diacid])-NH2; disulfide 4-14) | < 100 nM |
| CC[C@H](C)[C@@H]1NC(=O)[C@@H](NC(=O)[C@H](Cc2ccccc2)NC(=O)[C@H](CCC(=O)O)NC(=O)[C@H](CO)NC(C)=O)CSSC[C@@H](C(=O)N(C)CC(=O)N[C@@H](CCC(=O)O)C(=O)NCC(=O)N[C@@H](CCC(=O)O)C(=O)NCCOCCOCC(=O)NCCOCCOCC(=O)N[C@@H](CCCCNC(=O)CC[C@H](NC(=O)CNC(=O)CC[C@H](NC(=O)CCCCCCCCCCCCCCC(=O)O)C(=O)O)C(=O)O)C(N)=O)NC(=O)[C@H](CCCNC(=N)N)NC(=O)[C@H](Cc2c[nH]cn2)NC(=O)[C@H](CCC(=O)O)NC(=O)CNC(=O)[C@H](Cc2c[nH]c3ccccc23)NC(=O)[C@H](CC(=O)O)NC(=O)[C@H](CCC(N)=O)NC(=O)[C@H](Cc2cn(C)c3ccccc23)NC1=O [Compound 127] (Ac-SEFCI[Trp(1-Me)]QDWGEHRC[Sar]EGE[AEEA][AEEA]K([γGlu-Gly-γGlu-C16 diacid])-NH2; disulfide 4-14) | < 100 nM |
| CC[C@H](C)[C@@H]1NC(=O)[C@@H](NC(=O)[C@H](Cc2ccccc2)NC(=O)[C@H](CCC(=O)O)NC(=O)[C@H](CO)NC(C)=O)CSSC[C@@H](C(=O)N(C)CC(=O)N[C@@H](CCC(=O)O)C(=O)NCC(=O)N[C@@H](CCC(=O)O)C(=O)NCCOCCOCC(=O)NCCOCCOCC(=O)N[C@@H](CCCCNC(=O)CC[C@H](NC(=O)CNC(=O)CC[C@H](NC(=O)CCCCCCCCCCCCCCCCCCC(=O)O)C(=O)O)C(=O)O)C(N)=O)NC(=O)[C@H](CCCNC(=N)N)NC(=O)[C@H](Cc2c[nH]cn2)NC(=O)[C@H](CCC(=O)O)NC(=O)CNC(=O)[C@H](Cc2c[nH]c3ccccc23)NC(=O)[C@H](CC(=O)O)NC(=O)[C@H](CCC(N)=O)NC(=O)[C@H](Cc2cn(C)c3ccccc23)NC1=O [Compound 128] (Ac-SEFCI[Trp(1-Me)]QDWGEHRC[Sar]EGE[AEEA][AEEA]K([γGlu-Gly-γGlu-C20 diacid])-NH2; disulfide 4-14) | < 100 nM |
| CC[C@H](C)[C@@H]1NC(=O)[C@@H](NC(=O)[C@H](Cc2ccccc2)NC(=O)[C@H](CCC(=O)O)NC(=O)[C@H](CO)NC(C)=O)CSSC[C@@H](C(=O)N(C)CC(=O)N[C@@H](CCC(=O)O)C(=O)NCC(=O)N[C@@H](CCC(=O)O)C(=O)NCC(=O)NCC(=O)NCC(=O)N[C@@H](CCCCNC(=O)CC[C@H](NC(=O)CNC(=O)CC[C@H](NC(=O)CCCCCCCCCCCCCCCCC(=O)O)C(=O)O)C(=O)O)C(N)=O)NC(=O)[C@H](CCCNC(=N)N)NC(=O)[C@H](Cc2c[nH]cn2)NC(=O)[C@H](CCC(=O)O)NC(=O)CNC(=O)[C@H](Cc2c[nH]c3ccccc23)NC(=O)[C@H](CC(=O)O)NC(=O)[C@H](CCC(N)=O)NC(=O)[C@H](Cc2cn(C)c3ccccc23)NC1=O [Compound 129] (Ac-SEFCI[Trp(1-Me)]QDWGEHRC[Sar]EGEGGGK([γGlu-Gly-γGlu-C18 diacid])-NH2; disulfide 4-14) | < 100 nM |
| CC[C@H](C)[C@@H]1NC(=O)[C@@H](NC(=O)[C@H](Cc2ccccc2)NC(=O)[C@H](CCC(=O)O)NC(=O)[C@H](CO)NC(C)=O)CSSC[C@@H](C(=O)N[C@H](C(=O)N[C@@H](CCC(=O)O)C(=O)NCC(=O)N[C@@H](CCC(=O)O)C(=O)NCC(=O)NCC(=O)NCC(=O)N[C@@H](CCCCNC(=O)CC[C@H](NC(=O)CNC(=O)CC[C@H](NC(=O)CCCCCCCCCCCCCCCCC(=O)O)C(=O)O)C(=O)O)C(N)=O)[C@@H](C)O)NC(=O)[C@H](CCCNC(=N)N)NC(=O)[C@H](Cc2c[nH]cn2)NC(=O)[C@H](CCC(=O)O)NC(=O)CNC(=O)[C@H](Cc2c[nH]c3ccccc23)NC(=O)[C@H](CC(=O)O)NC(=O)[C@H](CCC(N)=O)NC(=O)[C@H](Cc2cn(C)c3ccccc23)NC1=O [Compound 130] (Ac-SEFCI[Trp(1-Me)]QDWGEHRCTEGEGGGK([γGlu-Gly-γGlu-C18 diacid])-NH2; disulfide 4-14) | < 100 nM |
| CC[C@H](C)[C@@H]1NC(=O)[C@@H](NC(=O)[C@H](Cc2ccccc2)NC(=O)[C@H](CCC(=O)O)NC(=O)[C@H](CO)NC(C)=O)CSSC[C@@H](C(=O)N[C@H](C(=O)N[C@@H](CCC(=O)O)C(=O)NCC(=O)N[C@@H](CCC(=O)O)C(=O)NCC(=O)NCC(=O)NCC(=O)N[C@@H](CCCCNC(=O)CC[C@H](NC(=O)CNC(=O)CC[C@H](NC(=O)CCCCCCCCCCCCCCC(=O)O)C(=O)O)C(=O)O)C(N)=O)[C@@H](C)O)NC(=O)[C@H](CCCNC(=N)N)NC(=O)[C@H](Cc2c[nH]cn2)NC(=O)[C@H](CCC(=O)O)NC(=O)CNC(=O)[C@H](Cc2c[nH]c3ccccc23)NC(=O)[C@H](CC(=O)O)NC(=O)[C@H](CCC(N)=O)NC(=O)[C@H](Cc2cn(C)c3ccccc23)NC1=O [Compound 131] (Ac-SEFCI[Trp(1-Me)]QDWGEHRCTEGEGGGK([γGlu-Gly-γGlu-C16 diacid])-NH2; disulfide 4-14) | < 100 nM |
| CC[C@H](C)[C@@H]1NC(=O)[C@@H](NC(=O)[C@H](Cc2ccccc2)NC(=O)[C@H](CCC(=O)O)NC(=O)[C@H](CO)NC(C)=O)CSSC[C@@H](C(=O)N(C)CC(=O)N[C@@H](CCC(=O)O)C(=O)N[C@@H](CCCCN)C(=O)N[C@@H](CCC(=O)NCC(=O)NCC(=O)NCC(=O)N[C@@H](CCCCNC(=O)CC[C@H](NC(=O)CNC(=O)CC[C@H](NC(=O)CCCCCCCCCCCCCCCCC(=O)O)C(=O)O)C(=O)O)C(N)=O)C(=O)O)NC(=O)[C@H](CCCNC(=N)N)NC(=O)[C@H](Cc2c[nH]cn2)NC(=O)[C@H](CCC(=O)O)NC(=O)CNC(=O)[C@H](Cc2c[nH]c3ccccc23)NC(=O)[C@H](CC(=O)O)NC(=O)[C@H](CCC(N)=O)NC(=O)[C@H](Cc2cn(C)c3ccccc23)NC1=O [Compound 132] (Ac-SEFCI[Trp(1-Me)]QDWGEHRC[Sar]EK[γGlu]GGGK([γGlu-Gly-γGlu-C18 diacid])-NH2; disulfide 4-14) | < 100 nM |
| CC[C@H](C)[C@@H]1NC(=O)[C@@H](NC(=O)[C@H](Cc2ccccc2)NC(=O)[C@H](CCC(=O)O)NC(=O)[C@H](CO)NC(C)=O)CSSC[C@@H](C(=O)N[C@H](C(=O)N[C@@H](CCC(=O)O)C(=O)N[C@@H](CCCCN)C(=O)N[C@@H](CCC(=O)NCC(=O)NCC(=O)NCC(=O)N[C@@H](CCCCNC(=O)CC[C@H](NC(=O)CNC(=O)CC[C@H](NC(=O)CCCCCCCCCCCCCCCCC(=O)O)C(=O)O)C(=O)O)C(N)=O)C(=O)O)[C@@H](C)O)NC(=O)[C@H](CCCNC(=N)N)NC(=O)[C@H](Cc2c[nH]cn2)NC(=O)[C@H](CCC(=O)O)NC(=O)CNC(=O)[C@H](Cc2c[nH]c3ccccc23)NC(=O)[C@H](CC(=O)O)NC(=O)[C@H](CCC(N)=O)NC(=O)[C@H](Cc2cn(C)c3ccccc23)NC1=O [Compound 133] (Ac-SEFCI[Trp(1-Me)]QDWGEHRCTEK[γGlu]GGGK([γGlu-Gly-γGlu-C18 diacid])-NH2; disulfide 4-14) | < 100 nM |
